Data as given in article PMC8286840, “Identifying SARS-CoV-2 antiviral compounds by screening for small molecule inhibitors of Nsp3 papain-like protease” (Biochemical Journal, 2021).
Structures can show the parent of a compound that is named as a salt. Where two headings read alike, the source gives them in different places.

Experiments:
[1] = target: T1, SARS-CoV-2 PLpro (nsp3 1564–1878) (Severe acute respiratory syndrome coronavirus 2, UniProt P0DTD1); experiment: biochemical; design: FRET-quenched peptide (Pro3) cleavage by PLpro, 10 min pre-incubation, slope over 20 min, normalised to no-compound control; conditions: high concentration screen, read-out: % of control remaining
[2] = target: T1, SARS-CoV-2 PLpro (nsp3 1564–1878); experiment: biochemical; design: FRET-quenched peptide (Pro3) cleavage by PLpro, 10 min pre-incubation, slope over 20 min, normalised to no-compound control; conditions: low concentration screen, read-out: % of control remaining

Structure (SMILES): CCN[C@H]1CO[C@@H](O[C@H]2[C@H](O[C@H]3C#C/C=C\C#C[C@]4(O)CC(=O)C(NC(=O)OC)=C3/C4=C/CSSSC)O[C@H](C)[C@@H](NO[C@H]3C[C@H](O)[C@H](SC(=O)c4c(C)c(I)c(O[C@@H]5O[C@@H](C)[C@H](O)[C@@H](OC)[C@H]5O)c(OC)c4OC)[C@@H](C)O3)[C@@H]2O)C[C@@H]1OC [Calicheamicin]
- remaining activity at 3.75 µM ([1]; Well no.=7060): 91.6%
- remaining activity at 1.25 µM ([2]; Well no.=7060): 94.4%

Structure (SMILES): COc1ccc2[nH]cc(CCN)c2c1 [O-Methylserotonin hydrochloride]
- remaining activity at 3.75 µM ([1]; Well no.=1076): 97%
- remaining activity at 1.25 µM ([2]; Well no.=1076): 94%

Structure (SMILES): CC(O)(P(=O)(O)O)P(=O)(O)O [Etidronate]
- remaining activity at 3.75 µM ([1]; Well no.=2068): 97.5%
- remaining activity at 3.75 µM ([1]; Well no.=8826): 87.6%
- remaining activity at 1.25 µM ([2]; Well no.=2068): 96.4%
- remaining activity at 1.25 µM ([2]; Well no.=8826): 85.3%

Structure (SMILES): COC(=O)Nc1ccc(-c2nc(N3CCOCC3)c3cnn(C4CCN(C(=O)OC)CC4)c3n2)cc1 [WYE-354]
- remaining activity at 3.75 µM ([1]; Well no.=4769): 103%
- remaining activity at 1.25 µM ([2]; Well no.=4769): 101%

Structure (SMILES): Cn1c(-c2ccc3c(c2)OCO3)cc(=O)c2ccccc21 [Graveoline]
- remaining activity at 3.75 µM ([1]; Well no.=3147): 104%
- remaining activity at 1.25 µM ([2]; Well no.=3147): 102%

Structure (SMILES): CC(C)(C)c1cc(O)ccc1O [tert-Butylhydroquinone]
- remaining activity at 3.75 µM ([1]; Well no.=3861): 97.9%
- remaining activity at 1.25 µM ([2]; Well no.=3861): 98%

Structure (SMILES): O=C(O)CCCc1c[nH]c2ccccc12 [Indole-3-butyric acid]
- remaining activity at 3.75 µM ([1]; Well no.=3210): 98.5%
- remaining activity at 1.25 µM ([2]; Well no.=3210): 91.8%

Structure (SMILES): CN(C)CCCO[C@@H]1[C@H]2OC(C)(C)O[C@H]2O[C@@H]1[C@H](O)CO [Amiprilose hydrochloride]
- remaining activity at 3.75 µM ([1]; Well no.=207): 103%
- remaining activity at 1.25 µM ([2]; Well no.=207): 101%

Structure (SMILES): CN(C)C(=O)Nc1cccc(-c2ccc(N(C)C)cc2)c1 [Atglistatin]
- remaining activity at 3.75 µM ([1]; Well no.=5396): 81.1%
- remaining activity at 1.25 µM ([2]; Well no.=5396): 98.8%

Structure (SMILES): NCCCCN(Cc1nc2ccccc2[nH]1)[C@H]1CCCc2cccnc21 [Mavorixafor (trihydrochloride)]
- remaining activity at 3.75 µM ([1]; Well no.=8167): 103%
- remaining activity at 1.25 µM ([2]; Well no.=8167): 109%

Structure (SMILES): CCCCCCCC/C=C\CCCCCCCC(=O)O [9(Z)-Octadecenoic acid]
- remaining activity at 3.75 µM ([1]; Well no.=4590): 98.1%
- remaining activity at 1.25 µM ([2]; Well no.=4590): 101%

Structure (SMILES): C1COC(NC(C2CC2)C2CC2)=N1 [Rilmenidine hemifumarate]
- remaining activity at 3.75 µM ([1]; Well no.=1450): 99.9%
- remaining activity at 1.25 µM ([2]; Well no.=1450): 101%

Structure (SMILES): CCN(C)C(=O)Oc1cccc([C@H](C)N(C)C)c1 [(2R,3R)-2,3-dihydroxybutanedioic acid compound with 3-[(1S)-1-(dimethylamino)ethyl]phenyl ethyl(methyl)carbamate (1:1)]
- remaining activity at 3.75 µM ([1]; Well no.=5811): 98%
- remaining activity at 1.25 µM ([2]; Well no.=5811): 96.9%

Structure (SMILES): CCCN(CCC)S(=O)(=O)c1ccc(C(=O)O)cc1 [Probenecid (Benemid)]
- remaining activity at 3.75 µM ([1]; Well no.=4972): 91.7%
- remaining activity at 1.25 µM ([2]; Well no.=4972): 95.9%

Structure (SMILES): CN1C(=O)COc2c(C(=O)NC3CN4CCC3CC4)cc(Cl)cc21 (stereo not drawn) [Azasetron (hydrochloride)]
- remaining activity at 3.75 µM ([1]; Well no.=8243): 96.1%
- remaining activity at 1.25 µM ([2]; Well no.=8243): 96.2%

Structure (SMILES): CC[C@@]1(O)C(=O)OCc2c1cc1n(c2=O)Cc2cc3c(CN(C)C)c(O)ccc3nc2-1 [Topotecan hydrochloride hydrate]
- remaining activity at 3.75 µM ([1]; Well no.=6019): 99%
- remaining activity at 1.25 µM ([2]; Well no.=6019): 103%

Structure (SMILES): CN1C[C@@H]2c3ccccc3Oc3ccc(Cl)cc3[C@H]2C1 (racemic) [Asenapine (hydrochloride)]
- remaining activity at 3.75 µM ([1]; Well no.=7661): 97%
- remaining activity at 1.25 µM ([2]; Well no.=7661): 101%

Structure (SMILES): O=C(Cc1ccc(-c2ccc(OCCN3CCOCC3)cc2)cn1)NCc1ccccc1 [KX2-391]
- remaining activity at 3.75 µM ([1]; Well no.=5350): 94.3%
- remaining activity at 1.25 µM ([2]; Well no.=5350): 94.7%

Structure (SMILES): CC(C)(O)CC(=O)NCCn1ccc2ncnc(Nc3ccc(Oc4cccc(C(F)(F)F)c4)c(Cl)c3)c21 [TAK-285]
- remaining activity at 3.75 µM ([1]; Well no.=4743): 104%
- remaining activity at 1.25 µM ([2]; Well no.=4743): 102%

Structure (SMILES): OC1c2ccccc2N=C2CCCN21 (stereo not drawn) [Peganole]
- remaining activity at 3.75 µM ([1]; Well no.=3541): 104%
- remaining activity at 1.25 µM ([2]; Well no.=3541): 95.9%

Structure (SMILES): Nc1ncnc2c1ncn2[C@@H]1O[C@H](COP(=O)(O)O)[C@@H](O)[C@H]1O [Adenosine 5'-monophosphate monohydrate]
- remaining activity at 3.75 µM ([1]; Well no.=7902): 101%
- remaining activity at 1.25 µM ([2]; Well no.=7902): 96.3%
- remaining activity at 1.25 µM ([2]; Well no.=8121): 106%
